ChEMBL document CHEMBL1201862, “PubChem BioAssay data set” (2004)
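Compound exposure: 48 hours, 5 concentrations, 96-well plates. GI50 marks 50% less growth.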 Calls of active or inactive are those of the source. No stated cut-off is given here; in the data, active = GI50 up to about 1.1 µM and inactive = higher.

Assays:
Assay in all cases: NCI anticancer screen, dose series, 48 h
HL-60 = test system: HL-60
M14 = test system: M14
A549 = test system: A549
NCI-H460 = test system: NCI-H460
SW-620 = test system: SW-620
CCRF-CEM = test system: CCRF-CEM
UO-31 = test system: UO-31
MDA-MB-231 = test system: MDA-MB-231
OVCAR-5 = test system: OVCAR-5
HCC 2998 = test system: HCC 2998
IGROV-1 = test system: IGROV-1
MCF7 = test system: MCF7
COLO 205 = test system: COLO 205
MDA-MB-435 = test system: MDA-MB-435
LOX IMVI = test system: LOX IMVI
Malme-3M = test system: Malme-3M
U-251 = test system: U-251
ACHN = test system: ACHN
HCT-116 = test system: HCT-116
NCI-H522 = test system: NCI-H522

Measured: GI50

C[C@@](Br)(C(=O)O)[C@H](Br)C(=O)O
inactive: HL-60 > 100 µM | M14 > 100 µM | A549 > 100 µM | NCI-H460 > 100 µM | SW-620 > 100 µM | CCRF-CEM > 100 µM | UO-31 > 100 µM | MDA-MB-231 > 100 µM | OVCAR-5 > 100 µM | HCC 2998 > 100 µM | IGROV-1 > 100 µM | MCF7 > 100 µM | COLO 205 > 100 µM | MDA-MB-435 > 100 µM | LOX IMVI > 100 µM | Malme-3M > 100 µM | U-251 > 100 µM | ACHN > 100 µM | HCT-116 > 100 µM

COC(=NC(C)C)NC(C)C
inactive: HL-60 > 100 µM | M14 > 100 µM | A549 > 100 µM | NCI-H460 > 100 µM | SW-620 > 100 µM | CCRF-CEM > 100 µM | UO-31 > 100 µM | MDA-MB-231 > 100 µM | OVCAR-5 > 100 µM | HCC 2998 > 100 µM | IGROV-1 > 100 µM | MCF7 > 100 µM | COLO 205 > 100 µM | MDA-MB-435 > 100 µM | LOX IMVI > 100 µM | U-251 > 100 µM | ACHN > 100 µM | HCT-116 > 100 µM

CNC(=O)OCC1=C(COC(=O)NC)CN(c2ccccc2)C1
inactive: M14 > 100 µM | A549 > 100 µM | NCI-H460 > 100 µM | SW-620 > 100 µM | CCRF-CEM > 100 µM | UO-31 > 100 µM | MDA-MB-231 > 100 µM | OVCAR-5 > 100 µM | HCC 2998 > 100 µM | IGROV-1 > 100 µM | MCF7 > 100 µM | COLO 205 > 100 µM | MDA-MB-435 > 100 µM | LOX IMVI > 100 µM | Malme-3M > 100 µM | U-251 > 100 µM | ACHN > 100 µM | HCT-116 > 100 µM

O=C1CSC(c2c[nH]c3ccccc23)N1c1ccc(Cl)cc1Cl (stereo unspecified)
inactive: HL-60 > 100 µM | M14 > 100 µM | NCI-H522 > 100 µM | A549 > 100 µM | NCI-H460 > 100 µM | SW-620 > 100 µM | CCRF-CEM > 100 µM | UO-31 > 100 µM | MDA-MB-231 > 100 µM | OVCAR-5 > 100 µM | HCC 2998 > 100 µM | IGROV-1 > 100 µM | MCF7 > 100 µM | COLO 205 > 100 µM | MDA-MB-435 > 10 µM | LOX IMVI > 100 µM | U-251 > 100 µM | HCT-116 > 100 µM

COC(=O)c1ccc(CN2CCc3c([nH]c4ccccc34)C2CO)o1 (stereo unspecified)
inactive: HL-60 > 10 µM | M14 > 10 µM | NCI-H522 > 10 µM | A549 > 10 µM | SW-620 > 10 µM | CCRF-CEM > 10 µM | MDA-MB-231 > 10 µM | HCC 2998 > 10 µM | IGROV-1 > 10 µM | MCF7 > 10 µM | COLO 205 > 10 µM | MDA-MB-435 > 10 µM | Malme-3M > 10 µM

O=C(c1cccs1)N(C(=O)N1CCN(c2ccccc2)CC1)S(=O)(=O)c1ccccc1
inactive: HL-60 19.4 µM | M14 17.7 µM | NCI-H522 15.6 µM | A549 32.8 µM | NCI-H460 28.2 µM | SW-620 31.5 µM | CCRF-CEM 20.8 µM | UO-31 18.5 µM | MDA-MB-231 23.1 µM | OVCAR-5 22.7 µM | HCC 2998 40.1 µM | MCF7 27.4 µM | COLO 205 16.4 µM | MDA-MB-435 25.2 µM | Malme-3M 19.8 µM | U-251 17.5 µM | ACHN 19.3 µM | HCT-116 20.2 µM

CC1CCc2sc3nc(S)n(C)c(=O)c3c2C1 (stereo unspecified)
inactive: HL-60 2.85 µM | M14 34.3 µM | NCI-H522 30.1 µM | A549 33.6 µM | NCI-H460 35.4 µM | SW-620 39.2 µM | UO-31 18.3 µM | MDA-MB-231 36.7 µM | OVCAR-5 73.1 µM | HCC 2998 22.2 µM | IGROV-1 37.4 µM | MCF7 35.5 µM | COLO 205 67.5 µM | MDA-MB-435 50.5 µM | LOX IMVI 33.7 µM | Malme-3M 53.6 µM | U-251 41.8 µM | ACHN 37.3 µM | HCT-116 34.5 µM

C/C=C1/CN2CCC34c5ccccc5N(C)C23C2CC1C4(C(=O)OC)C(OC(C)=O)O2 (stereo unspecified)
inactive: HL-60 > 100 µM | M14 > 100 µM | NCI-H522 > 100 µM | A549 > 100 µM | NCI-H460 > 100 µM | SW-620 > 100 µM | CCRF-CEM > 100 µM | UO-31 > 100 µM | MDA-MB-231 > 100 µM | OVCAR-5 > 100 µM | HCC 2998 > 100 µM | IGROV-1 > 100 µM | MCF7 > 100 µM | COLO 205 > 100 µM | MDA-MB-435 > 100 µM | LOX IMVI > 100 µM | U-251 > 100 µM | ACHN > 100 µM | HCT-116 > 100 µM

CON(C)C(=O)C1CCCO1 (stereo unspecified)
inactive: HL-60 34.5 µM | M14 > 100 µM | NCI-H522 > 100 µM | A549 > 100 µM | NCI-H460 > 100 µM | SW-620 > 100 µM | CCRF-CEM > 100 µM | UO-31 > 100 µM | MDA-MB-231 > 100 µM | OVCAR-5 > 100 µM | IGROV-1 > 100 µM | MCF7 > 100 µM | COLO 205 > 100 µM | MDA-MB-435 > 100 µM | LOX IMVI > 100 µM | U-251 > 100 µM | ACHN > 100 µM | HCT-116 > 100 µM

c1ccc(C2=NCCc3cc4c(cc32)OCO4)cc1
inactive: M14 > 100 µM | NCI-H522 > 100 µM | A549 > 100 µM | SW-620 > 100 µM | CCRF-CEM > 10 µM | MDA-MB-231 > 100 µM | OVCAR-5 > 100 µM | HCC 2998 > 100 µM | IGROV-1 > 100 µM | MCF7 > 100 µM | COLO 205 > 100 µM | MDA-MB-435 > 100 µM | LOX IMVI > 100 µM | Malme-3M > 100 µM | U-251 > 100 µM

CC12c3c4cc(Br)cc3Oc3cc(Br)cc(c31)Oc1cc(Br)cc(c12)O4
inactive: M14 35.4 µM | A549 44.8 µM | NCI-H460 63.1 µM | SW-620 24.6 µM | UO-31 52 µM | MDA-MB-231 17.8 µM | OVCAR-5 55.5 µM | HCC 2998 81.5 µM | IGROV-1 22.8 µM | MCF7 43.4 µM | COLO 205 25.6 µM | MDA-MB-435 26.2 µM | LOX IMVI 24.9 µM | Malme-3M 19.9 µM | U-251 62.1 µM | ACHN 51.9 µM | HCT-116 17.7 µM

COc1cc2c3c(c1O)-c1c(ccc(OC)c1OC)CC3N(C)CC2 (stereo unspecified)
inactive: HL-60 40.9 µM | M14 > 100 µM | NCI-H522 > 100 µM | A549 > 100 µM | NCI-H460 > 100 µM | SW-620 > 100 µM | CCRF-CEM 91.4 µM | UO-31 > 100 µM | MDA-MB-231 > 100 µM | OVCAR-5 > 100 µM | IGROV-1 > 100 µM | MCF7 > 100 µM | COLO 205 > 100 µM | MDA-MB-435 > 100 µM | LOX IMVI > 100 µM | U-251 > 100 µM | ACHN > 100 µM | HCT-116 > 100 µM

CC1(C)CC(=O)C(=CNC(=S)c2ccccc2)C(=O)C1
inactive: HL-60 32.3 µM | M14 > 100 µM | NCI-H522 > 100 µM | A549 > 100 µM | NCI-H460 > 100 µM | SW-620 > 100 µM | CCRF-CEM 27 µM | UO-31 > 100 µM | MDA-MB-231 > 100 µM | OVCAR-5 > 100 µM | HCC 2998 > 100 µM | IGROV-1 > 100 µM | MCF7 > 100 µM | COLO 205 > 100 µM | MDA-MB-435 > 100 µM | LOX IMVI > 100 µM | U-251 > 100 µM | ACHN > 100 µM | HCT-116 > 100 µM

OCC(O)COCn1cc(Cn2ncc3c(NCc4ccccc4)ncnc32)nn1 (stereo unspecified)
inactive: HL-60 > 100 µM | M14 > 100 µM | NCI-H522 18.7 µM | A549 > 100 µM | SW-620 > 100 µM | CCRF-CEM > 100 µM | UO-31 > 100 µM | MDA-MB-231 > 100 µM | OVCAR-5 > 100 µM | HCC 2998 > 100 µM | IGROV-1 > 100 µM | MCF7 > 100 µM | COLO 205 > 100 µM | MDA-MB-435 > 100 µM | LOX IMVI > 100 µM | U-251 > 100 µM | ACHN > 100 µM | HCT-116 > 100 µM

N#C[BH2-][n+]1cn(C2CC(O)C(COP(=O)(O)OC3CC(n4c[n+]([BH2-]C#N)c5c(=O)[nH]c(N)nc54)OC3CO)O2)c2nc(N)[nH]c(=O)c21 (stereo unspecified)
inactive: HL-60 > 100 µM | M14 > 100 µM | NCI-H522 > 100 µM | A549 > 100 µM | NCI-H460 > 100 µM | SW-620 > 100 µM | CCRF-CEM > 100 µM | UO-31 > 100 µM | MDA-MB-231 > 100 µM | OVCAR-5 > 100 µM | HCC 2998 > 100 µM | IGROV-1 > 100 µM | MCF7 > 100 µM | COLO 205 > 100 µM | MDA-MB-435 > 100 µM | Malme-3M > 100 µM | U-251 > 100 µM | ACHN > 100 µM | HCT-116 > 100 µM
